The values that follow come from article PMC12515563, “Kinetic, Spectral, and Structural Characterization of a Heme-Containing Peroxidase From the Skin of Cucurbita maxima” (Biochemistry Research International, 2025).

The assay has as its target T1, horseradish peroxidase (HRP) (Armoracia rusticana, UniProt P00433).
T1 construct: gene PRXC1A; commercial horseradish peroxidase
T1 sequence (P00433 31-338): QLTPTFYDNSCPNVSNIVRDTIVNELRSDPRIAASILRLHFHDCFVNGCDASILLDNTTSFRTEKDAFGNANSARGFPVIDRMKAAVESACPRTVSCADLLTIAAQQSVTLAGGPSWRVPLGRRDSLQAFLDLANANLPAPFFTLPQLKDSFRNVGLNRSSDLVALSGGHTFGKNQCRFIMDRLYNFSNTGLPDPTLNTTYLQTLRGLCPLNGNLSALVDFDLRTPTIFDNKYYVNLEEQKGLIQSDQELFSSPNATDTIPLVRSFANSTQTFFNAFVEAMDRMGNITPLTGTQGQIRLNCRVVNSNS
In words: UV-vis absorption difference spectra (data not shown). Type of assay: binding.

Regarding `CC(=O)O` [acetate], the “UV-vis absorption difference spectra (data not shown)” value is “both HRP and PKS demonstrated similar effects with acetate in the current study (data not shown)”.
